One experiment deals with BRD4-BD1 (Homo sapiens (Human), UniProt O60885). As to the kind of experiment: bromoKdELECT assay for binding affinity to BRD4-BD1. To be noted: 11-point 3-fold dilution. On the procedure: (§1) Compounds were tested using a bromoKdELECT assay. T7 phage strains displaying bromodomains were grown in parallel in 24-well blocks in an E. coli host derived from the BL21 strain. E. coli were grown to log-phase and infected with T7 phage from a frozen stock (multiplicity of infection=0.4) and incubated with shaking at 32° C. until lysis (90-150 minutes). The lysates were centrifuged (5,000×g) and filtered (0.2 μm) to remove cell debris. Streptavidin-coated magnetic beads were treated with biotinylated small molecule or acetylated peptide ligands for 30 minutes at room temperature to generate affinity resins for bromodomain assays. The liganded beads were blocked with excess biotin and washed with blocking buffer (SeaBlock (Pierce), 1% BSA, 0.05% Tween 20, 1 mM DTT) to remove unbound ligand and to reduce nonspecific phage binding. Binding reactions were assembled by combining bromodomains, liganded affinity beads, and test compounds in 1× binding buffer (17% SeaBlock, 0.33×PBS, 0.04% Tween 20, 0.02% BSA, 0.004% Sodium azide, 7.4 mM DTT). Test compounds were prepared as 1000× stocks in 100% DMSO. Kds were determined using an 11-point 3-fold compound dilution series with one DMSO control point. All compounds for Kd measurements are distributed by acoustic transfer (non-contact dispensing) in 100% DMSO. The compounds were then diluted directly into the assays such that the final concentration of DMSO was 0.09%. All reactions performed in polypropylene 384-well plates. Each was a final volume of 0.02 ml. The assay plates were incubated at room temperature with shaking for 1 hour and the affinity beads were washed with wash buffer (1×PBS, 0.05% Tween 20). The beads were then resuspended in elution buffer (1×PBS, 0.05% Tween 20, 2 μM non-biotinylated affinity ligand) and incubated at room temperature with shaking for 30 minutes. The bromodomain concentration in the eluates was measured by qPCR.

For a further experiment, the target named is BRD4-BD2 (Homo sapiens (Human), UniProt O60885). Briefly: bromoKdELECT assay for binding affinity to BRD4-BD2. To be noted: 11-point 3-fold dilution. The procedure: as §1
In experiment [1] the test system is T-Rex 293 cell line SC3 cells having increased expression of androgen receptor protein. As to the kind of experiment: Cellular growth inhibition, T-Rex 293 SC3 cells with increased androgen receptor expression (doxycycline), CellTiter-Glo. The experiment is classed as cell-based. Conditions: T-Rex 293 SC3 cells with increased androgen receptor expression (exposed to 10 ng/mL doxycycline), 72 hours, CellTiter-Glo; read-out: GI50. Summed up: (§2)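 SC3, a T-Rex 293 clone with doxycycline-inducible wild-type androgen receptor, was seeded in phenol red-free DMEM with 10% charcoal-dextran FBS, with or without 10 ng/mL doxycycline. Compound added at 24 h (0.5% DMSO) for 72 h at 37° C. CellTiter-Glo 2.0 luminescence; GI50 from four-parameter fit.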

Experiment [2] deals with T-Rex 293 cell line SC3 cells lacking increased expression of androgen receptor protein. As to the kind of experiment: Cellular growth inhibition, T-Rex 293 SC3 cells lacking increased androgen receptor expression (no doxycycline), CellTiter-Glo. The experiment is classed as cell-based. Conditions: T-Rex 293 SC3 cells lacking increased androgen receptor expression (not exposed to doxycycline), 72 hours, CellTiter-Glo; read-out: GI50. The method, boiled down: as §2

The next experiment deals with VCaP cells. As to the kind of experiment: Cellular growth inhibition assay for VCaP cells, CellTiter-Glo. To be noted: VCaP cells, 72 hours, CellTiter-Glo, read-out: GI50. The experiment is classed as cell-based, human. Summed up: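 GI50 values come from four-parameter curve fits of luminescence data normalized to a zero baseline. Compound, in medium with 0.5% DMSO, was added one day after plating and left for 72 h before CellTiter-Glo 2.0 addition.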

Another experiment concerns T47D cells. Briefly: Cellular growth inhibition assay for T47D cells, CellTiter-Glo. The experiment is classed as cell-based, human. Conditions: 72 hours treatment, CellTiter-Glo 2.0. The method, boiled down:
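Luminescence from CellTiter-Glo 2.0 after 72 h of compound exposure gives the viability signal. Cells grew in insulin-supplemented (0.2 units/mL) DMEM with 10% FBS and were treated one day after seeding at 0.5% DMSO. GI50 values come from four-parameter nonlinear regression.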

Where two headings read alike, the source gives them in different places.

As for `CCS(=O)(=O)Nc1ccc(Oc2cccc(OCCOCCOCCOCCOCCOC3CCN(c4ccc(C(=O)N[C@H]5CC[C@H](Oc6ccc(C#N)c(Cl)c6)CC5)nn4)CC3)c2)c(-c2cn(C)c(=O)c3[nH]ccc23)c1` [I-3, N-[4-(3-chloro-4-cyano-phenoxy)cyclohexyl]-6-[4-[2-[2-[2-[2-[2-[3-[4-(ethylsulfonylamino)-2-(6-methyl-7-oxo-1H-pyrrolo[2,3-c]pyridin-4-yl)phenoxy]phenoxy]ethoxy]ethoxy]ethoxy]ethoxy]ethoxy]-1-piperidyl]pyridazine-3-carboxamide], the Kd on BRD4-BD1 and at BRD4-BD2 was under 50 nM throughout. The 50% growth inhibitory concentration (GI50) was under 500 nM in experiment [1], over 3000 nM in experiment [2] and under 500 nM in the experiment on VCaP cells (Homo sapiens).
For `CCS(=O)(=O)c1ccc(Oc2cccc(OCCCC3CCN(c4ccc(C(=O)N[C@H]5CC[C@H](Oc6ccc(C#N)c(Cl)c6)CC5)nn4)CC3)c2F)c(-c2cn(C)c(=O)c3[nH]ccc23)c1` [I-15], the Kd on BRD4-BD1 and at BRD4-BD2 was 500 to 2500 nM each time. The concentration for 50% growth inhibition (GI50) (in experiment [1]; in experiment [2]; with VCaP cells (Homo sapiens)) was under 500 nM each time.
`CCS(=O)(=O)Cc1ccc(Oc2cccc(OCCCC3CCN(c4ccc(C(=O)N[C@H]5CC[C@H](Oc6ccc(C#N)c(Cl)c6)CC5)nn4)CC3)c2F)c(-c2cn(C)c(=O)c3[nH]ccc23)c1` [I-20]: the Kd on BRD4-BD1 and at BRD4-BD2 was 500 to 2500 nM throughout. Moreover, the GI50 (in experiment [1]; in experiment [2]; in the experiment with VCaP cells (Homo sapiens)) was under 500 nM in each case.
For `CCS(=O)(=O)Cc1ccc(Oc2cccc(CCCOC3CCN(c4ccc(C(=O)N[C@H]5CC[C@H](Oc6ccc(C#N)c(Cl)c6)CC5)nn4)CC3)c2F)c(-c2cn(C)c(=O)c3[nH]ccc23)c1` [I-29], the Kd at BRD4-BD1 and at BRD4-BD2 was 50 to 500 nM each time. Further, the GI50 (in experiment [1]; in experiment [2]; with VCaP cells (Homo sapiens)) was under 500 nM throughout.
In the case of `CCS(=O)(=O)Nc1ccc(Oc2ccc(CCOC3CCN(c4ccc(C(=O)N[C@H]5CC[C@H](Oc6ccc(C#N)c(Cl)c6)CC5)nn4)CC3)cc2)c(-c2cn(C)c(=O)c3[nH]ccc23)c1` [I-35], the Kd on BRD4-BD1 and at BRD4-BD2 was under 50 nM throughout. Further, the concentration for 50% growth inhibition (GI50) (in experiment [1]; in experiment [2]; with VCaP cells (Homo sapiens)) was under 500 nM throughout.
For the molecule `CCS(=O)(=O)Cc1ccc(OC2CC(OCC3CCN(c4ccc(C(=O)NC5CCC(Oc6ccc(C#N)c(Cl)c6)CC5)nn4)CC3)C2)c(-c2cn(C)c(=O)c3[nH]ccc23)c1` (stereo not shown) [I-240, N-((1r,4r)-4-(3-chloro-4-cyanophenoxy)cyclohexyl)-6-(4-(((1r,3r)-3-(4-((ethylsulfonyl)methyl)-2-(6-methyl-7-oxo-6,7-dihydro-1H-pyrrolo[2,3-c]pyridin-4-yl)phenoxy)cyclobutoxy)methyl)piperidin-1-yl)pyridazine-3-carboxamide], the 50% growth inhibitory concentration (GI50) (in experiment [1]; in experiment [2]; in the experiment with VCaP cells; in the experiment on T47D cells) was under 500 nM in each case.
For `Cn1cc(-c2cc(S(C)(=O)=O)ccc2OC(CCCCN2CCN(c3ccc(C(=O)NC4CCC(Oc5ccc(C#N)c(Cl)c5)CC4)nn3)CC2)C2CC2)c2cc[nH]c2c1=O` (stereo not shown) [I-244, N-[4-(3-chloro-4-cyano-phenoxy)cyclohexyl]-6-[4-[5-cyclopropyl-5-[2-(6-methyl-7-oxo-1H-pyrrolo[2,3-c]pyridin-4-yl)-4-methylsulfonyl-phenoxy]pentyl]piperazin-1-yl]pyridazine-3-carboxamide], the GI50 (in experiment [1]; in experiment [2]; in the experiment with VCaP cells (Homo sapiens); with T47D cells (Homo sapiens)) was under 500 nM throughout.
Regarding `Cn1cc(-c2cc(C3CCCS3(=O)=O)ccc2OC2CC(OCC3CCN(c4ccc(C(=O)NC5CCC(Oc6ccc(C#N)c(Cl)c6)CC5)nn4)CC3)C2)c2cc[nH]c2c1=O` (stereo not shown) [I-245, N-[4-(3-chloro-4-cyano-phenoxy)cyclohexyl]-6-[4-[[3-[4-(1,1-dioxothiolan-2-yl)-2-(6-methyl-7-oxo-1H-pyrrolo[2,3-c]pyridin-4-yl)phenoxy]cyclobutoxy]methyl]-1-piperidyl]pyridazine-3-carboxamide], the 50% growth inhibitory concentration (GI50) (in experiment [1]; in experiment [2]; with VCaP cells (Homo sapiens); in the experiment on T47D cells (Homo sapiens)) was under 500 nM throughout.
Consider `Cn1cc(-c2cc(N3CCCCS3(=O)=O)ccc2Oc2ccc(CCC3CCN(c4ccc(C(=O)NC5CCC(Oc6ccc(C#N)c(Cl)c6)CC5)nn4)CC3)cc2)c2cc[nH]c2c1=O` (stereo not shown) [I-246, N-[4-(3-chloro-4-cyano-phenoxy)cyclohexyl]-6-[4-[2-[4-[4-(1,1-dioxothiazinan-2-yl)-2-(6-methyl-7-oxo-1H-pyrrolo[2,3-c]pyridin-4-yl)phenoxy]phenyl]ethyl]-1-piperidyl]pyridazine-3-carboxamide], for which the GI50 (in experiment [1]; in experiment [2]; in the experiment with VCaP cells; in the experiment on T47D cells) was under 500 nM each time.
With `Cn1cc(-c2cc(C(C)(C)O)ccc2CN2CC(CC3CCN(c4ccc(C(=O)NC5CCC(Oc6ccc(C#N)c(Cl)c6)CC5)nn4)CC3)C2)c2cc[nH]c2c1=O` (stereo not shown) [I-248, N-[4-(3-chloro-4-cyano-phenoxy)cyclohexyl]-6-[4-[[1-[[4-(1-hydroxy-1-methyl-ethyl)-2-(6-methyl-7-oxo-1H-pyrrolo[2,3-c]pyridin-4-yl)phenyl]methyl]azetidin-3-yl]methyl]-1-piperidyl]pyridazine-3-carboxamide], the concentration for 50% growth inhibition (GI50) in experiment [1] was 500 to 1500 nM; in experiment [2] it was 1500 to 3000 nM; with VCaP cells (Homo sapiens), over 3000 nM; with T47D cells (Homo sapiens), 500 to 1500 nM.
Turning to `Cn1cc(-c2cc(C3CCS(=O)(=O)CC3)ccc2Oc2ccc(CCC3CCN(c4ccc(C(=O)NC5CCC(Oc6ccc(C#N)c(Cl)c6)CC5)nn4)CC3)cc2)c2cc[nH]c2c1=O` (stereo not shown) [I-250, N-[4-(3-chloro-4-cyano-phenoxy)cyclohexyl]-6-[4-[2-[4-[4-(1,1-dioxothian-4-yl)-2-(6-methyl-7-oxo-1H-pyrrolo[2,3-c]pyridin-4-yl)phenoxy]phenyl]ethyl]-1-piperidyl]pyridazine-3-carboxamide], the GI50 in experiment [1] was under 500 nM; in experiment [2], under 500 nM; with VCaP cells (Homo sapiens) it was 500 to 1500 nM; in the experiment with T47D cells (Homo sapiens), 500 to 1500 nM.
`CCS(=O)(=O)c1ccc(C(F)(F)c2ccc(CCC3CCN(c4ccc(C(=O)NC5CCC(Oc6ccc(C#N)c(Cl)c6)CC5)nn4)CC3)cc2)c(-c2cn(C)c(=O)c3[nH]ccc23)c1` (stereo not shown) [I-251, N-((1r,4r)-4-(3-chloro-4-cyanophenoxy)cyclohexyl)-6-(4-(4-((4-(ethylsulfonyl)-2-(6-methyl-7-oxo-6,7-dihydro-1H-pyrrolo[2,3-c]pyridin-4-yl)phenyl)difluoromethyl)phenethyl)piperidin-1-yl)pyridazine-3-carboxamide]: the 50% growth inhibitory concentration (GI50) in experiment [1] was under 500 nM; in experiment [2], over 3000 nM; in the experiment on VCaP cells it was over 3000 nM; in the experiment on T47D cells, under 500 nM.
Consider `Cn1cc(-c2cc(C3CCCS3(=O)=O)ccc2Oc2ccc(CCC3CCN(c4ccc(C(=O)NC5CCC(Oc6ccc(C#N)c(Cl)c6)CC5)nn4)CC3)cc2)c2cc[nH]c2c1=O` (stereo not shown) [I-252, N-[4-(3-chloro-4-cyano-phenoxy)cyclohexyl]-6-[4-[2-[4-[4-(1,1-dioxothiolan-2-yl)-2-(6-methyl-7-oxo-1Hpyrrolo[2,3-c]pyridin-4-yl)phenoxy]phenyl]ethyl]-1-piperidyl]pyridazine-3-carboxamide], for which the GI50 in experiment [1] was under 500 nM; in experiment [2], over 3000 nM; in the experiment on VCaP cells (Homo sapiens) it was under 500 nM; in the experiment on T47D cells (Homo sapiens) it was 500 to 1500 nM.
Consider `Cn1cc(-c2cc(C(C)(C)O)ccc2Oc2ccc(C3CN(C4CCN(c5ccc(C(=O)N[C@H]6CC[C@H](Oc7ccc(C#N)c(Cl)c7)CC6)nn5)CC4)C3)cc2)c2cc[nH]c2c1=O` [I-254], for which the 50% growth inhibitory concentration (GI50) in experiment [1] is under 500 nM; in experiment [2], 500 to 1500 nM; in the experiment with VCaP cells (Homo sapiens), under 500 nM; in the experiment on T47D cells (Homo sapiens) it was 1500 to 3000 nM.

The record behind these values is patent publication US20250388575A1, “HETEROBIFUNCTIONAL COMPOUNDS AND METHODS OF TREATING DISEASE” (Halda Therapeutics OpCo, Inc., priority 2022, published 2025).
